≈ marks a conversion by molar mass, not a printed value. Where “and” joins values, the source holds several entries; their conditions need not be identical. Equal entries are not always repeated.
Tests used:
Experiment in all cases: ≥ marks a high value that may be exact or a test limit, other limits are often not marked, values filed in µg/mL are converted to µM
[1] = system: Candida krusei ATCC 6258
[2] = system: Candida parapsilosis ATCC 22019
[3] = system: Candida albicans SC5314
[4] = system: Candida tropicalis ATCC 13803
[5] = system: Micrococcus luteus DSM 20030
[6] = system: Listeria fleischmannii DSM 24998
[7] = system: Listeria monocytogenes DSM 20600
[8] = system: Escherichia coli D31
[9] = system: Listeria grayi DSM 20601
[10] = system: Staphylococcus aureus ATCC 25923
[11] = system: Mycobacterium tuberculosis mc2-6020
[12] = system: Streptococcus mutans
[13] = system: Streptococcus agalactiae
[14] = system: Streptococcus pneumoniae ATCC 49619
[15] = system: Pseudomonas aeruginosa ATCC 27853
[16] = system: Streptococcus pyogenes
[17] = system: Mycobacterium tuberculosis mc2-6230
[18] = system: Klebsiella pneumoniae
[19] = system: Escherichia coli ATCC 25922
[20] = system: Enterococcus faecalis PCM 2673
[21] = system: Aspergillus niger ATCC 16404
[22] = system: Candida glabrata ATCC 15126
[23] = system: Candida albicans ATCC 10231
[24] = system: Pseudomonas aeruginosa ATCC 9027
[25] = system: Staphylococcus aureus ATCC 9144
[26] = system: Klebsiella pneumoniae ATCC 700603
[27] = system: Escherichia coli ATCC 23506
[28] = system: Escherichia coli DH5alpha
[29] = system: Pseudomonas aeruginosa PAO1
[30] = system: Staphylococcus aureus ATCC 6538P
[31] = system: Bacillus subtilis PY79
[32] = system: Pseudomonas aeruginosa PA14
[33] = system: Escherichia coli C600
[34] = system: Pseudomonas aeruginosa 1
[35] = system: Escherichia coli 1
[36] = system: Klebsiella pneumoniae 2
[37] = system: Klebsiella pneumoniae 1
[38] = system: Pseudomonas aeruginosa 2
[39] = system: Staphylococcus aureus ATCC 33591
[40] = system: Staphylococcus aureus 209P
[41] = system: Escherichia coli
[42] = system: Enterococcus faecium mic80
[43] = system: Pseudomonas aeruginosa 213
[44] = system: Pseudomonas aeruginosa H103
[45] = system: Pseudomonas aeruginosa LES400
[46] = system: Escherichia coli ESBL 63103
[47] = system: Staphylococcus aureus C623
[48] = system: Candida albicans C627
[49] = system: Staphylococcus aureus NCTC 8530
[50] = system: Staphylococcus aureus ATCC 33592

Compound: NCCCC[C@H](NC(=O)[C@H](Cc1ccc(O)cc1)NC(=O)[C@H](CCCCN)NC(=O)[C@@H](N)CS)C(=O)N[C@@H](Cc1c[nH]c2ccccc12)C(=O)N[C@@H](CCCN=C(N)N)C(=O)O [CKYKWR]
- MIC [1]: ≥ 113 µM
- MIC [2]: ≥ 113 µM
- MIC [3]: ≥ 113 µM
- MIC [4]: ≥ 56.6 µM

Compound: CC[C@H](C)[C@H](N)C(=O)N[C@@H](Cc1ccccc1)C(=O)NCC(=O)N[C@@H](C)C(=O)N[C@H](C(=O)N[C@@H](Cc1c[nH]c2ccccc12)C(=O)N[C@@H](CO)C(=O)NCC(=O)N[C@H](C(=O)N[C@@H](CCCCN)C(=O)N[C@@H](CO)C(=O)N[C@@H](CC(C)C)C(=O)N[C@@H](Cc1ccccc1)C(N)=O)[C@@H](C)CC)[C@@H](C)CC [IFGAIWSGIKSLF]
- MIC [5]: 4 µM (≈ 5.75 µg/mL)
- MIC [6]: 4 µM (≈ 5.75 µg/mL)
- MIC [7]: 4 µM (≈ 5.75 µg/mL)
- MIC [8]: 8 µM (≈ 11.5 µg/mL)
- MIC [9]: 8 µM (≈ 11.5 µg/mL)

Compound: CC[C@H](C)[C@H](N)C(=O)N[C@@H](CCCN=C(N)N)C(=O)N[C@@H](CCCCN)C(=O)N[C@@H](CC(C)C)C(=O)N[C@@H](CCCCN)C(=O)N[C@@H](CO)C(=O)N[C@@H](Cc1c[nH]c2ccccc12)C(=O)N[C@@H](CCCCN)C(=O)N[C@@H](Cc1c[nH]c2ccccc12)C(=O)N[C@@H](CC(C)C)C(=O)N[C@@H](CCCN=C(N)N)C(=O)N[C@@H](Cc1c[nH]c2ccccc12)C(=O)N[C@@H](CC(C)C)C(=O)O [IRKLKSWKWLRWL]
- MIC [10]: 32 µM (≈ 58 µg/mL)
- MIC [11]: 16 µM (≈ 29 µg/mL)
- MIC [12]: 8 µM (≈ 14.5 µg/mL)
- MIC [13]: ≥ 32 µM
- MIC [14]: ≥ 32 µM
- MIC [15]: 68 µM (≈ 123 µg/mL)
- MIC [16]: 4 µM (≈ 7.25 µg/mL)
- MIC [17]: ≥ 68 µM
- MIC [18]: 136 µM (≈ 247 µg/mL)
- MIC [19]: 16 µM (≈ 29 µg/mL)

Compound: CC[C@H](C)[C@H](NC(=O)CNC(=O)[C@H](CCCN=C(N)N)NC(=O)[C@@H](NC(=O)[C@H](CC(C)C)NC(=O)[C@H](CO)NC(=O)CNC(=O)[C@@H](NC(=O)[C@@H](N)CC(C)C)[C@@H](C)CC)C(C)C)C(=O)N[C@@H](CC(C)C)C(=O)N1CCC[C@H]1C(=O)N[C@@H](CC(C)C)C(=O)N[C@@H](Cc1ccccc1)C(N)=O [LIGSLVRGILPLF]
- MIC [20]: ≥ 183 µM
- MIC [21]: ≥ 183 µM
- MIC [22]: ≥ 183 µM
- MIC [10]: 45.8 µM (≈ 64 µg/mL)
- MIC [14]: ≥ 183 µM
- MIC [23]: 183 µM (≈ 256 µg/mL)
- MIC [24]: 183 µM (≈ 256 µg/mL)
- MIC [25]: ≥ 45.8 µM
- MIC [26]: 91.6 µM (≈ 128 µg/mL)
- MIC [27]: ≥ 183 µM
- MIC [19]: 183 µM (≈ 256 µg/mL)

Compound: CC(C)C[C@H](NC(=O)[C@H](CCCN=C(N)N)NC(=O)[C@@H](NC(=O)[C@H](CCCN=C(N)N)NC(=O)[C@@H](N)CC(C)C)C(C)C)C(=O)N[C@@H](C)C(=O)N[C@@H](CO)C(=O)N[C@@H](Cc1cnc[nH]1)C(=O)N[C@@H](CC(C)C)C(=O)N[C@@H](CCCN=C(N)N)C(=O)N[C@@H](CCCCN)C(=O)N[C@@H](CC(C)C)C(=O)N[C@@H](CCCN=C(N)N)C(=O)N[C@@H](CCCCN)C(=O)N[C@@H](CCCN=C(N)N)C(=O)N[C@@H](CC(C)C)C(=O)N[C@@H](CC(C)C)C(=O)N[C@@H](CCCN=C(N)N)C(=O)O [LRVRLASHLRKLRKRLLR]
- MIC [28]: 12.5 µM (≈ 28.6 µg/mL)
- MIC [29]: 25 µM (≈ 57.1 µg/mL)
- MIC [30]: 3.12 µM (≈ 7.13 µg/mL)
- MIC [31]: 25 µM (≈ 57.1 µg/mL)
- MIC [32]: ≥ 50 µM
- MIC [26]: 6.25 µM (≈ 14.3 µg/mL)
- MIC [19]: 6.25 µM (≈ 14.3 µg/mL)

Compound: CC(C)[C@@H]1NC(=O)CNC(=O)[C@H](CCCN=C(N)N)NC(=O)[C@H](C(C)C)NC(=O)[C@H](CCCN=C(N)N)NC(=O)[C@H](C)NC(=O)[C@H](Cc2ccc(O)cc2)NC(=O)[C@H](C(C)C)NC(=O)[C@@H](NC(=O)[C@H](Cc2c[nH]c3ccccc23)NC(=O)[C@@H](N)CCCN=C(N)N)CSSC[C@@H](C(=O)N[C@@H](Cc2c[nH]c3ccccc23)C(=O)O)NC(=O)[C@H](CCCN=C(N)N)NC(=O)[C@H](CCCN=C(N)N)NC(=O)[C@H](Cc2ccc(O)cc2)NC(=O)[C@H](CCCN=C(N)N)NC1=O [RWCVYARVRGVRYRRCW]
- MIC [33]: 1.56 µM (≈ 3.56 µg/mL)
- MIC [34]: 2 µM and 4 µM
- MIC [35]: 1 µM and 0.5 µM
- MIC [29]: 6.25 µM (≈ 14.3 µg/mL)
- MIC [36]: 2 µM (≈ 4.57 µg/mL)
- MIC [37]: 1 µM and 2 µM
- MIC [38]: 4 µM (≈ 9.13 µg/mL)
- MIC [39]: 0.06 µM (≈ 0.137 µg/mL)
- MIC [40]: 1.56 µM (≈ 3.56 µg/mL)
- MIC [41]: 1 µM (≈ 2.28 µg/mL)

Compound: CC[C@H](C)[C@H](NC(=O)[C@H](Cc1c[nH]c2ccccc12)NC(=O)[C@H](CCCN=C(N)N)NC(=O)[C@H](Cc1c[nH]c2ccccc12)NC(=O)[C@H](Cc1c[nH]c2ccccc12)NC(=O)[C@H](CCCN=C(N)N)NC(=O)[C@H](CCCCN)NC(=O)[C@H](Cc1c[nH]c2ccccc12)NC(=O)[C@@H](N)CCCN=C(N)N)C(=O)O [RWKRWWRWI]
- MIC [42]: 21.7 µM (≈ 32 µg/mL)
- MIC [43]: 21.7 µM (≈ 32 µg/mL)
- MIC [10]: 5.43 µM (≈ 8 µg/mL)
- MIC [44]: 2.72 µM (≈ 4 µg/mL)
- MIC [45]: 21.7 µM (≈ 32 µg/mL)
- MIC [46]: 10.9 µM (≈ 16 µg/mL)
- MIC [47]: 2.72 µM (≈ 4 µg/mL)
- MIC [48]: 2.72 µM (≈ 4 µg/mL)

Compound: CC[C@H](C)[C@H](NC(=O)[C@H](Cc1ccccc1)NC(=O)[C@H](CC(C)C)NC(=O)[C@H](CCCN=C(N)N)NC(=O)[C@@H](NC(=O)[C@H](CCCCN)NC(=O)[C@@H](NC(=O)[C@H](CC(C)C)NC(=O)[C@@H](N)C(C)C)[C@@H](C)CC)[C@@H](C)O)C(=O)N[C@@H](CCCCN)C(=O)N[C@@H](CCCN=C(N)N)C(=O)N[C@@H](CCCCN)C(=O)O [VLIKTRLFIKRK]
- MIC [49]: 8 µM (≈ 12.1 µg/mL)
- MIC [50]: 4 µM (≈ 6.06 µg/mL)
- MIC [15]: 8 µM (≈ 12.1 µg/mL)

Reference: DBAASP
